{"source": "patent US20220054535A1", "about": "“STRONTIUM BASED COMPOSITIONS AND FORMULATIONS FOR PAIN, PRURITUS, AND INFLAMMATION” (STRONTIUM NEUROGENICS INC., priority 2018, published 2022)", "key": {"HSV1": {"system": "HSV1", "assay": "Preliminary investigations on HSV1 symptoms", "format": "in vivo", "from_the_text": "Without wishing to be bound by any one theory, it is believed that strontium's ability to block NF-Kappa B contributes to minimizing the symptoms associated with an active infection. As mentioned above, HSV 1 and 2 require the activation of NF-Kappa B for de novo virus synthesis. By blocking NF-Kappa B, strontium is essentially stopping the infection at an early stage."}, "[1]": {"system": "synchronous neurotransmitter release in response to TCN activation", "details": "strontium substitutes for calcium; cited from earlier work"}, "[2]": {"assay": "Preliminary investigations on post herpetic neuralgia pain", "format": "in vivo"}, "TNF-alpha": {"target": "TNF-alpha (Homo sapiens, UniProt P01375)", "sequence (P01375 77-233 limits assumed, species assumed)": "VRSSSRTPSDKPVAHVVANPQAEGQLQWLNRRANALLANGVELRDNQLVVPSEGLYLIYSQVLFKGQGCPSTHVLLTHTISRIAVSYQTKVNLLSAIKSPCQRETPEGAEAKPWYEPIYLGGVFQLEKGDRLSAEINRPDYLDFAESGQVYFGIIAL", "assay": "Preliminary investigations on the psoriasis inflammatory/keratinocyte cycle, TNF-alpha", "from_the_text": "(§1) The present disclosure is premised on the belief that the psoriatic cycle begins with a triggering event such as trauma, infection, or stress that causes the keratinocytes to become stressed and activates dendritic cells. The dendritic cells release IL-12 and IL-23, which in turn stimulate Th17 and Th1 cells […]. Th17 releases […] which stimulates inflammation. Similarly, Th1 cells release […] which stimulates inflammation. Th1 cells also stimulate keratinocyte division leading to the formation of plaques. The activation of immune cells releases cytokines which also activates keratinocytes. The interaction between the immune system and keratinocyte activation becomes a self-feeding cycle.\n(§2) Applicants' preliminary investigations indicate that strontium can break up the inflammatory/keratinocyte cycle of psoriasis, specifically by blocking the IL-17 and TNF-alpha. By targeting and blocking the two main pathways that activated dendritic cells use to trigger a psoriatic episode, strontium has immense potential as a therapeutic for psoriasis."}, "MMP": {"system": "MMP", "assay": "Preliminary data in atopic dermatitis pathways, MMP activity", "from_the_text": "Other molecular pathways activated in atopic dermatitis include matrix metalloproteinases (MMPs). MMPs are a family of enzymes capable of breaking down extracellular matrix proteins, including connective tissues."}, "TCN activation": {"system": "TCN activation", "assay": "Burning pain and stinging from highly acidic chemical peel (70% glycolic acid, pH 0.6)", "format": "in vivo", "details": "strontium mixed with the acid (70% glycolic acid, pH 0.6)", "experimental": "Nociceptors also have a CaSR that inhibits nociceptor activation when the extracellular concentration of calcium is raised above normal, or if a similar concentration of strontium is administered. […] When strontium is mixed with the acid, burning pain and stinging is suppressed by 80% or more so that any remaining sensory irritation is not bothersome."}, "IL-17": {"target": "T1, IL-17 (Homo sapiens, UniProt Q16552)", "T1 sequence (Q16552 24-155)": "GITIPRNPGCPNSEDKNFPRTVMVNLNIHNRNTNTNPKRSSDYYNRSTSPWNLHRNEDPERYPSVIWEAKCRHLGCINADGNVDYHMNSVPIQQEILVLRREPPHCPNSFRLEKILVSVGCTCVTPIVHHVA", "assay": "Preliminary investigations on the psoriasis inflammatory/keratinocyte cycle, IL-17", "from_the_text": "as §1, §2"}, "TLR-4": {"target": "TLR-4 (Homo sapiens, UniProt O00206)", "sequence (O00206 24-839, species assumed)": "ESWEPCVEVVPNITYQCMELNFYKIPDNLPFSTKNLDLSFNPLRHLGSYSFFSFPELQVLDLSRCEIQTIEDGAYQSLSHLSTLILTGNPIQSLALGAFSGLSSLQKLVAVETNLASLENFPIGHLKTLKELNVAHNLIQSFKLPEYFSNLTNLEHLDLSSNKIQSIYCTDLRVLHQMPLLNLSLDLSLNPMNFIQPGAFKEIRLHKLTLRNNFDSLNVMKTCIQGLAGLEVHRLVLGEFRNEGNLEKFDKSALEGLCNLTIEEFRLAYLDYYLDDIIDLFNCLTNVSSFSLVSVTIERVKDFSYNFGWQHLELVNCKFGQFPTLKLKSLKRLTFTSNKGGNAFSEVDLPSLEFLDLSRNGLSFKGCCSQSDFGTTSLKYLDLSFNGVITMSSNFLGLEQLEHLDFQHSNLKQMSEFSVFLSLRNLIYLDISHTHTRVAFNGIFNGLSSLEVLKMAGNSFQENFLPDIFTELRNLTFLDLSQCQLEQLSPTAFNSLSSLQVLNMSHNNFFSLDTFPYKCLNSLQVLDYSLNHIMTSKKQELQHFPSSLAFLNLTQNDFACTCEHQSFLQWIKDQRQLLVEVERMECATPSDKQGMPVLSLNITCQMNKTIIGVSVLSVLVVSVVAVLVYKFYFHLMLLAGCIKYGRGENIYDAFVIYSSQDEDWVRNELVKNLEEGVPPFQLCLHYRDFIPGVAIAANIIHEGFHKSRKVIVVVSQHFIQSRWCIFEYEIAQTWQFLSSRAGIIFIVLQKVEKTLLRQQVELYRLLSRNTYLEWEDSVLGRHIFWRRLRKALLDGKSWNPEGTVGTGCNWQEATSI", "sequence (Q9Y6Y9 17-160 partner limits assumed, species assumed)": "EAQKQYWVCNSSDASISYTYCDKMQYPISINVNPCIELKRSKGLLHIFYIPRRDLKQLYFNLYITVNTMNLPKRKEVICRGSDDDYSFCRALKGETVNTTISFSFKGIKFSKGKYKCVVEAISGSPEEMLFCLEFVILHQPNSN", "assay": "Preliminary data in atopic dermatitis pathways, TLR-4", "from_the_text": "The present disclosure is premised on the belief that people with atopic dermatitis have higher levels of Staphylococcus aureus on their skin. The higher bacterial levels trigger an immune response via the toll-like receptors, in particular toll-like receptor 4 (TLR-4). The present disclosure is also premised on the belief that continual activation of TLR-4 contributes to the chronic nature of atopic dermatitis."}, "CICR pathway": {"system": "CICR pathway", "details": "cited from earlier work"}}, "data": [{"smiles": "[Sr+2]", "note": "[strontium, Strontium]", "values": [{"measurement": "pain, itch, and rash/blister formation associated with HSV1", "setting": "HSV1", "value": "can reduce and or eliminate"}, {"measurement": "reduction of amplitude of synchronous neurotransmitter release", "setting": "[1]", "value": "more than 90%"}, {"measurement": "pain associated with PHN", "setting": "[2]", "value": "can reduce or block"}, {"measurement": "blocking of TNF-alpha", "setting": "TNF-alpha", "value": "blocking"}, {"measurement": "MMP activity", "setting": "MMP", "value": "can block"}, {"measurement": "suppression of burning pain and stinging", "setting": "TCN activation", "value": "≥ 80", "unit": "%"}, {"measurement": "blocking of IL-17", "setting": "IL-17", "value": "blocking"}, {"measurement": "TLR-4 activity", "setting": "TLR-4", "value": "can block"}, {"measurement": "ability to induce CICR relative to calcium", "setting": "CICR pathway", "value": "over a hundred-fold less active than calcium"}, {"measurement": "concentration reached in the ER, greater than calcium", "setting": "CICR pathway; in the ER", "value": "more than 150%"}]}]}
